Experimental data: ChEMBL document CHEMBL5352444, “Development of benzene and benzothiazole-sulfonamide analogues as selective inhibitors of the tumor-associated carbonic anhydrase IX” (Eur J Med Chem, 2022)

Tests used:
[1] = Cytotoxicity against HGF cells assessed as increase in cell viability at 50 uM incubated for 72 hrs by MTT assay relative to control; assay type: toxicity, cell-based; settings: human
Carbonic anhydrase 1 = Carbonic anhydrase 1 (Homo sapiens, UniProt P00915); test: Inhibition of human carbonic anhydrase 1 assessed as inhibition constant preincubated for 15 mins and measured for 10 to 100 sec by phenol red dye based stopped flow CO2 hydration assay
Sequence of Carbonic anhydrase 1 (P00915 whole entry): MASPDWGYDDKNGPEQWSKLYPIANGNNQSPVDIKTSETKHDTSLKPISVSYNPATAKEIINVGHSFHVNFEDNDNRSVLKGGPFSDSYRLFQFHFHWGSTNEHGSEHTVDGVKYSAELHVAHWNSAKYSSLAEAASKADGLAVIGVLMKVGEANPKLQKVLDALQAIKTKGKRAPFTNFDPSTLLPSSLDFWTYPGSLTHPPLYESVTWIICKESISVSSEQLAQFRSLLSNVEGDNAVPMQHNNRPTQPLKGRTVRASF

Carbonic anhydrase 9 = Carbonic anhydrase 9 (Homo sapiens, UniProt Q16790); test: Inhibition of human carbonic anhydrase 9 assessed as inhibition constant incubated for 15 mins by phenol red dye based stopped flow CO2 hydration assay
[2] = Cytotoxicity against HGF cells assessed as cell viability at 50 uM incubated for 72 hrs by MTT assay relative to control; assay type: toxicity, cell-based; settings: human, read-out: Activity
[3] = Cytotoxicity against HGF cells assessed as increase in cell viability at 10 uM incubated for 72 hrs by MTT assay relative to control; assay type: toxicity, cell-based; settings: human
[4] = Cytotoxicity against HGF cells assessed as increase in cell viability at 50 uM incubated for 48 hrs by MTT assay relative to control; assay type: toxicity, cell-based; settings: human
Carbonic anhydrase 4 = Carbonic anhydrase 4 (Homo sapiens, UniProt P22748); test: Inhibition of human carbonic anhydrase 4 assessed as inhibition constant preincubated for 15 mins and measured for 10 to 100 sec by phenol red dye based stopped flow CO2 hydration assay
Sequence of Carbonic anhydrase 4 (P22748 whole entry): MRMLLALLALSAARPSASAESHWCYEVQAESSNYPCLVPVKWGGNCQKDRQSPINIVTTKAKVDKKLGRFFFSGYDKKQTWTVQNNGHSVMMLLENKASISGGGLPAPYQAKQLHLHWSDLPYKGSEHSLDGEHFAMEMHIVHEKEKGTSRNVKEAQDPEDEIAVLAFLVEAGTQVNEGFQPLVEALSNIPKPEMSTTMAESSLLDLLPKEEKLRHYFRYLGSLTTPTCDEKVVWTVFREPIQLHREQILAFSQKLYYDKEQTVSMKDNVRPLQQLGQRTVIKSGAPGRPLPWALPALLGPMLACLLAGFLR

[5] = Cytotoxicity against HGF cells assessed as increase in cell viability at 50 uM incubated for 48 hrs by MTT assay relative to doxorubicin; assay type: toxicity, cell-based; settings: human
[6] = Cytotoxicity against HGF cells assessed as increase in cell viability at 10 uM incubated for 72 hrs by MTT assay relative to doxorubicin; assay type: toxicity, cell-based; settings: human
[7] = Cytotoxicity against HGF cells assessed as increase in cell viability at 10 uM incubated for 48 hrs by MTT assay relative to doxorubicin; assay type: toxicity, cell-based; settings: human
Carbonic anhydrase 2 = Carbonic anhydrase 2 (Homo sapiens, UniProt P00918); test: Inhibition of human carbonic anhydrase 2 assessed as inhibition constant preincubated for 15 mins and measured for 10 to 100 sec by phenol red dye based stopped flow CO2 hydration assay
[8] = Cytotoxicity against HGF cells assessed as increase in cell viability at 10 uM incubated for 48 hrs by MTT assay relative to control; assay type: toxicity, cell-based; settings: human

Structure (SMILES)	Activity [1]	Ki (Carbonic anhydrase 1) [nM]	Ki (Carbonic anhydrase 9) [nM]	viability at 72 h, 50 µM [2] [%]	Activity [3]	Activity [4]	Ki (Carbonic anhydrase 4) [nM]	Activity [5]	Activity [6]	Activity [7]	Ki (Carbonic anhydrase 2) [nM]	Activity [8]
COc1ccccc1N1CCN(C(=S)SCC(=O)Nc2ccc(S(N)(=O)=O)cc2)CC1	Toxic	36.6	32.2	> 60	Toxic	Toxic	> 10000	Non-Toxic	Non-Toxic	Non-Toxic	611	
NS(=O)(=O)c1ccc(NC(=O)CSC(=S)N2CCN(C(c3ccccc3)c3ccccc3)CC2)cc1		1810	154				8450				441	
NS(=O)(=O)c1ccc(NC(=O)CSC(=S)N2CCOCC2)cc1		72.8	162				649				7.2	
NS(=O)(=O)c1ccc(NC(=O)CSC(=S)N2CCN(Cc3ccccc3)CC2)cc1		84.1	31.6				3400				17.4	
NS(=O)(=O)c1ccc(NC(=O)CSC(=S)N2CCCCC2)cc1		27.5	261				406				6	
NS(=O)(=O)c1ccc2nc(NC(=O)CSC(=S)N3CCN(C(c4ccccc4)c4ccccc4)CC3)sc2c1		9150	157				7640				965	
NS(=O)(=O)c1ccc(NC(=O)CSC(=S)N2CCN(c3ccc(F)c(Cl)c3)CC2)cc1		2120	276				2440				438	
NS(=O)(=O)c1ccc2nc(NC(=O)CSC(=S)N3CCCCC3)sc2c1		85.6	26.6				7440				3.8	
COc1ccccc1N1CCN(C(=S)SCC(=O)Nc2nc3ccc(S(N)(=O)=O)cc3s2)CC1	Toxic	5030	30.3	> 60	Toxic		7260	Non-Toxic	Non-Toxic	Non-Toxic	51.5	
COc1ccc(N2CCN(C(=S)SCC(=O)Nc3ccc(S(N)(=O)=O)cc3)CC2)cc1		2080	564				901				298	
NS(=O)(=O)c1ccc(NC(=O)CSC(=S)N2CCN(c3ccccc3)CC2)cc1		707	744				1470				240	
COc1ccc(N2CCN(C(=S)SCC(=O)Nc3nc4ccc(S(N)(=O)=O)cc4s3)CC2)cc1	Toxic	958	30.9	> 60	Toxic		> 10000	Non-Toxic	Non-Toxic	Non-Toxic	363	
CCOC(=O)N1CCN(C(=S)SCC(=O)Nc2ccc(S(N)(=O)=O)cc2)CC1		54.8	136				779				5.7	
CCN1CCN(C(=S)SCC(=O)Nc2ccc(S(N)(=O)=O)cc2)CC1		8.2	296				189				4.9	
CN1CCN(C(=S)SCC(=O)Nc2ccc(S(N)(=O)=O)cc2)CC1			255				420					
Cc1ccc(N2CCN(C(=S)SCC(=O)Nc3ccc(S(N)(=O)=O)cc3)CC2)cc1		2010	1250				2310				371	
NS(=O)(=O)c1ccc2nc(NC(=O)CSC(=S)N3CCN(c4ccccc4)CC3)sc2c1		4190	115				> 10000				91.4	
CCN1CCN(C(=S)SCC(=O)Nc2nc3ccc(S(N)(=O)=O)cc3s2)CC1		56.1	28.8				5930				2.5	
CN1CCN(C(=S)SCC(=O)Nc2nc3ccc(S(N)(=O)=O)cc3s2)CC1		20.8	30.6				5090				4.1	
NS(=O)(=O)c1ccc2nc(NC(=O)CSC(=S)N3CCOCC3)sc2c1		8.8	26.8				8120				27.9	
NS(=O)(=O)c1ccc2nc(NC(=O)CSC(=S)N3CCN(Cc4ccccc4)CC3)sc2c1	Toxic	599	25.9	> 60	Toxic		5540	Non-Toxic	Non-Toxic	Non-Toxic	297	
CC(=O)Nc1nnc(S(N)(=O)=O)s1 [ACETAZOLAMIDE]	Toxic			> 60				Non-Toxic	Non-Toxic	Non-Toxic		
COc1cccc2c1C(=O)c1c(O)c3c(c(O)c1C2=O)C[C@@](O)(C(=O)CO)C[C@@H]3O[C@H]1C[C@H](N)[C@H](O)[C@H](C)O1 [DOXORUBICIN]	Toxic				Toxic	Toxic						Toxic
CCOC(=O)N1CCN(C(=S)SCC(=O)Nc2nc3ccc(S(N)(=O)=O)cc3s2)CC1	Toxic	7570	22.1	> 60	Toxic		> 10000	Non-Toxic	Non-Toxic	Non-Toxic	50.3	
